Values quoted from earlier work as cited in patent US8362253B2, “Solid forms of N-[2,4-bis(1,1-dimethylethyl)-5-hydroxyphenyl]-1,4-dihydro-4-oxoquinoline-3-carboxamide” (Vertex Pharmaceutical Incorporated, priority 2007, dated 2013).

System: cystic fibrosis transmembrane conductance regulator (CFTR) protein
Conditions: cells from patients with CF, CFTR present on the cell surface; background statement

## CC(C)(C)c1cc(C(C)(C)C)c(NC(=O)c2c[nH]c3ccccc3c2=O)cc1O [Compound 1, N-[2,4-bis(1,1-dimethylethyl)-5-hydroxyphenyl]-1,4-dihydro-4-oxoquinoline-3-carboxamide]
  Function of defective CFTR channels: restored the function of defective CFTR channels
